According to patent US20080254152A1, “Methods for Reducing the Effects of Stress on Skin Condition” (priority 2003, published 2008):

Key:
[1] = tested on: ICAM-1 expression in HUVECs; assay: ICAM-1 expression in HUVECs pre-treated 5 days with dexamethasone, then oxidatively stressed with PMA (ELISA); format: cell-based, Human; details: chronic 1 μM glucocorticoid 5 days, then 1 μM PMA; HUVEC; FIG. 1
Experimental: An in vitro model has been developed to investigate the impact of chronic stress on the inflammatory status of endothelial cells. • a. Cells are grown in 6-well (9.5 cm^2) plates. • b. […] Tissue culture supernatant and cell pellets are harvested at timepoint T0. • d. The cells are oxidatively stressed with 1 μM Phorbol Myristate Acetate (PMA). • e. Tissue culture supernatant and cell pellets were harvested at 6, 24 and 48 hours (T6, T24 and T48, respectively) post-PMA treatment. • f. All tissue culture supernatant was assayed for Lactate Dehydrogenase (LDH), as a measure of cytotoxicity, and Interleukin-6 synthesis. • g. All cells were counted (Beckman Coulter Counter) and pelleted and cell lysate assayed for ICAM-1 expression (Intra Cellular Adhesion Molecule 1).
HUVEC cells (Human umbilical vein endothelial cells, TCS Biologicals) were cultured and passaged in EGM-2 (Endothelial growth medium, Biowhittaker) supplemented with heparin, VEGF (vascular endothelial growth factor), gentamicin sulphate, ascorbic acid, HEGF (Human endothelial growth factor), hydrocortisone, HFGF-B (Human fibroblast growth factor B), R3-IGF-1 (long R insulin-like growth factor 1) and FBS (foetal bovine serum).
Cells were routinely plated out in 6-well tissue culture dishes, at a seeding density of ˜5000 cells/cm^2 in 2 ml complete medium/well, 48 hours before starting the experiment, and incubated at 37° C. in 5% CO2.
Pre-treatment and test solutions were prepared in EGM-2 containing all supplements except hydrocortisone.
Following this, the cells were oxidatively stressed for 24 hours with 1 μM PMA (Sigma P8139).
Receptor antagonists were added to the cells during the pre-treatment period. These included the Glucocorticoid Receptor Antagonist; 2 μM Mifepristone (Sigma M8046) and two CRH receptor antagonists; 200 nM Astressin (Sigma A4933) and 200 nM α-helical CRF peptide antagonist (Sigma C2917).
Any change in cell morphology was noted before the cells were harvested. Both the tissue culture supernatant and the endothelial cells were harvested after the five-day pre-treatment period (T0), at 6 hours and 24 hours after addition of PMA (T6 and T24) and at 24 hours after removal of the PMA (T48). All tissue culture supernatants were stored at −20° C.
All cell pellets were lysed on ice for 30 minutes in 1 ml cell lysis buffer per 2.5×10^6 cells. The lysis buffer contained 1% NP-40, 0.1% sodium deoxycholate, 0.1% SDS, 6 mM sodium chloride and 0.05M Tris at pH 7.6. Protease inhibitor cocktail ([…]; Sigma P8340) was added prior to use at a level of 10 μl per ml of lysis buffer. The partially lysed cell pellets were completely homogenised with a pellet pestle and unwanted cell debris removed by centrifugation for 20 minutes at 20,000 g at 4° C. The clarified cell lysate was frozen at −80° C. until needed.
The total protein concentration of each cell lysate was measured using the Pierce BCA protein assay kit. A set of eight standard solutions ranging from 0 to 1200 μg/ml protein was prepared from the supplied 2 mg/ml BSA stock solution. 10 μl of standard or cell lysate was added to duplicate wells of a flat-bottomed, 96-well microtitre plate. The reagent solution was prepared according to the kit instructions from 50 parts reagent A and 1 part reagent B. 200 μl of the final reagent was added to each well of the microtitre plate. The plate was mixed, covered and incubated at 37° C. for 30 minutes and absorbance read at 562 nm.
ICAM-1 protein in each cell lysate was estimated using the Human sICAM-1 DuoSet ELISA kit (R&D Systems DY720) according to the manufacturer's instructions.
The capture antibody was diluted to a final concentration of 4 μg/ml in PBS and 100 μl was used to coat each well of a 96-well microtitre plate overnight at room temperature. The plate was then washed three times with wash buffer (0.05% Tween 20 in PBS).

[2] = tested on: MMP-1 expression in human adult-derived dermal fibroblast cells; assay: Active MMP-1 in adult-derived human dermal fibroblasts after chronic dexamethasone and PMA; format: cell-based; details: for Suppression of MMP-1 synthesis vs control, untreated cells: chronic dexamethasone then 1 μM PMA, adult fibroblasts
Experimental: In this study, to understand better the effect of chronic stress on dermal matrix remodelling in the skin, we have therefore measured changes in markers of dermal matrix degradation (MMP-1) and dermal matrix synthesis (Procollagen I) in chronically glucocorticoid-treated primary human dermal fibroblasts, following acute stress with PMA. The experimental approach is similar to that described in example 1 except that the cells tested are dermal fibroblasts and cells are assayed for expression of procollagen-1, MMP-1 and MMP-9 expression.
Primary human dermal fibroblast cells were cultured and passaged in DMEM (Gibco) supplemented with 10% FBS (foetal bovine serum). Cells were routinely plated out in 6-well tissue culture dishes, at a seeding density of ˜5000 cells/cm^2 in 2 ml complete medium/well for 24 hours, and incubated at 37° C. in 5% CO2. Media was removed and cells grown in DMEM & 1% FBS, 24 hours prior to treatments.
Pre-treatment and test solutions were prepared in DMEM containing low serum (1% FBS). […] Following this, the cells were oxidatively stressed for 24 hours with 1 μM PMA (Sigma P8139).
MMP-1 and MMP-9 protein in each cell supernatant was estimated using the Human active MMP-1 and MMP-9 Fluorokine enzyme kit (R&D Systems F1M00 and F9M00, respectively), according to the manufacturer's instructions.
Six MMP-1 and MMP-9 standards were prepared in calibrator diluent at concentrations ranging from 0.39 to 12.5 ng/ml and 0.25 to 16 ng/ml, respectively. 100 μl of assay diluent and 150 μl of tissue culture supernatant or standard was added to duplicate wells. The plate was incubated at room temperature for 3 hours on a horizontal orbital plate shaker before being washed four times with wash buffer. 200 μl of APMA was added to each well and the plate incubated at 37° C. for 2 hours in a humidified environment and protected from the light. The plate was washed as before. Each well received 200 μl of substrate solution and the plate incubated at 37° C. for 17-20 hours in a humidified environment and protected from the light. The relative fluorescence unit (RFU) of each well was determined using a fluorescence plate set with 1×20 mS integration time, plate speed ˜6; excitation wavelength set to 320 nm and emission wavelength set to 405 nm.
A standard curve was plotted of mean RFU versus MMP-1 and MMP-9 concentration (respectively), and the line of best fit calculated by regression analysis. The unknown concentration of either active MMP-1 or MMP-9 protein in all of the samples was estimated from this.

For C[C@@H]1C[C@H]2[C@@H]3CCC4=CC(=O)C=C[C@]4(C)[C@@]3(F)[C@@H](O)C[C@]2(C)[C@@]1(O)C(=O)CO [Dexamethasone], the “Induction of ICAM-1 synthesis after PMA, glucocorticoid pre-treated vs not pre-treated cells” value [1] was “significantly greater”, the “Level of active MMP-1” value ([2]; GC-treated adult fibroblasts) was about 25 ng/mL and the “Suppression of MMP-1 synthesis vs control, untreated cells” value ([2]; T6) was about 85%. For the same molecule, the “Suppression of MMP-1 synthesis vs control, untreated cells” value ([2]; T24) was 10% and the “Suppression of MMP-1 synthesis vs control, untreated cells” value ([2]; T48) was 80%.
